We go through eight molecules from ChEMBL document CHEMBL1148299 (J Med Chem, 2004).

A short description of data set [1]: (§1) Compound was tested for the inhibition of HIV-1 301657 clinical isolate in PBMC cultures. It counts as functional. The note with it: Homo sapiens.
For data set [2], the system named is Rattus norvegicus. The experiment in a line: Area under curve value 6 hr after po administration in rat. The class given is ADME, organism-based. Also on record: time < 6 hr, route oral; concentration or dose not given beside the values. The note with it: in vivo.
Data set [3] addresses C-C chemokine receptor type 5 (Homo sapiens, UniProt P51681). Briefly: Antagonistic activity against C-C chemokine receptor type 5. The class given is functional.
Data set [4] in a line: Compound was tested for inhibiting the entry of replication deffective HIV-1 (YU-2) in to […] cells. The class given is functional, cell-based. The following applies: Homo sapiens.
Data set [5] in a line: (§2) Compound was tested for the inhibition of HIV-1 JrFL clinical isolate in PBMC cultures. It counts as functional. The following applies: Homo sapiens.
The nature of data set [6]: (§3) Compound was tested for the inhibition of HIV-1 JV1083 clinical isolate in PBMC cultures. The class given is functional. The note with it: Homo sapiens.
The nature of data set [7]: (§4) Compound was tested for the inhibition of HIV-1 RU 570 clinical isolate in PBMC cultures. The note with it: Homo sapiens. The class given is functional.
The target in data set [8] is T1, Muscarinic acetylcholine receptor M2 (Homo sapiens, UniProt P08172).
T1 sequence (P08172 whole entry): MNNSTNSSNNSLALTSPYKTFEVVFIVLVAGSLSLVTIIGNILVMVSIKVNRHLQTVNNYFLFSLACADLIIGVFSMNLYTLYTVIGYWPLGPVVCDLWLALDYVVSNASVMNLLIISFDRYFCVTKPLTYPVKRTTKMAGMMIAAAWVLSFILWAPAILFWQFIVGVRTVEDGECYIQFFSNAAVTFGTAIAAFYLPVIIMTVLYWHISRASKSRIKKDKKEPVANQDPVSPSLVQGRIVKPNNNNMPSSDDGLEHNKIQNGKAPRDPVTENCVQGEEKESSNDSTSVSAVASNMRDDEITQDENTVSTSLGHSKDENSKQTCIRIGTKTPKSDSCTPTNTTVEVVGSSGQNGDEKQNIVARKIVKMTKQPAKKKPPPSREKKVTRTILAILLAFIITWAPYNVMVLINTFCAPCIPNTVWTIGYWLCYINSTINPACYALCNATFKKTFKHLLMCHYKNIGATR
Briefly: Antagonistic activity against Muscarinic acetylcholine receptor M2. The class given is functional.

Data set [9] can be described thus: (§5) Compound was tested for the inhibition of HIV-1 ADA-M clinical isolate in PBMC cultures. The class given is functional. The following applies: Homo sapiens.
Data set [10] has as its target T2, Muscarinic acetylcholine receptor M1 (Homo sapiens, UniProt P11229).
T2 sequence (P11229 whole entry): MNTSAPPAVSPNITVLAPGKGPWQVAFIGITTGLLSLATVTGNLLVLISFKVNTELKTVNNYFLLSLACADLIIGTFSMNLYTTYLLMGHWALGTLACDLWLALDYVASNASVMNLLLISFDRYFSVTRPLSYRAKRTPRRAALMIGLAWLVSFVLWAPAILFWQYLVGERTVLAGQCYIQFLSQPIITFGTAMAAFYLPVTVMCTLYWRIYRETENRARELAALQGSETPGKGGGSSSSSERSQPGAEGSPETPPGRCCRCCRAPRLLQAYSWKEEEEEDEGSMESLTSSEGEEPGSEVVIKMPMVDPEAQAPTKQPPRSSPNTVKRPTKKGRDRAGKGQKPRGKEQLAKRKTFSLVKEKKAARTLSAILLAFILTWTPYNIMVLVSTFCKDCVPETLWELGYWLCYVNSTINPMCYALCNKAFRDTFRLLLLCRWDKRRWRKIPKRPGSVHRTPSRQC
The experiment in a line: Antagonistic activity against muscarinic M1 receptor. It counts as functional.

The target in data set [11] is Muscarinic acetylcholine receptor M3 (Homo sapiens, UniProt P20309). The experiment in a line: Antagonistic activity against muscarinic M3 receptor. The class given is functional.
Data set [12] in a line: Cmax 24 hr after 2 mg/kg oral administration in monkeys. The note with it: cercopithecidae, in vivo. The class given is ADME, organism-based. Set-up: dose 2 mg/kg, route oral.
Data set [13] in a line: Half-life 24 hr after 2 mg/kg iv administration in rats. It counts as ADME, organism-based. Also on record: dose 2 mg/kg, route intravenous. The note with it: rat, in vivo.
For data set [14], the species on record is Homo sapiens. The description is as §1. The class given is functional.
For data set [15], the species on record is Homo sapiens. Described as §2. It counts as functional.
The nature of data set [16]: Area under curve value 24 hr after 2 mg/kg oral administration in monkeys. It counts as ADME, organism-based. Set-up: time < 24 hr, dose 2 mg/kg, route oral. The following applies: cercopithecidae, in vivo.
Data set [17] is described as follows: Cmax 24 hr after 2 mg/kg oral administration in rats. The class given is ADME, organism-based. The note with it: rat, in vivo. Set-up: dose 2 mg/kg, route oral.
The nature of data set [18]: Half-life 24 hr after 2 mg/kg iv administration in monkeys. The following applies: cercopithecidae, in vivo. Set-up: dose 2 mg/kg, route intravenous. The class given is ADME, organism-based.
Data set [19] deals with Rattus norvegicus. The experiment in a line: Area under curve value 24 hr after 2 mg/kg iv administration in rats. Set-up: time < 24 hr, dose 2 mg/kg, route intravenous. The class given is ADME, organism-based. The following applies: in vivo.
The species named for data set [20] is Homo sapiens. Described as §3. It counts as functional.
Data set [21] is filed under the species Homo sapiens. The description is as §4. The class given is functional.
Data set [22] is filed under the species Homo sapiens. The description is as §5. It counts as functional.
A short description of data set [23]: Bioavailability in monkey (dose 2 mg/kg). The class given is ADME, organism-based. The following applies: cercopithecidae, in vivo.
The nature of data set [24]: Bioavailability after administration of 2 mg/kg in rats. The class given is ADME, organism-based. The following applies: rat, in vivo, read-out: Bioavailabiility.
The test system of data set [25] is Rattus norvegicus. Briefly: Area under curve value 24 hr after 2 mg/kg oral administration in rats. Set-up: time < 24 hr, dose 2 mg/kg, route oral. The following applies: in vivo. It counts as ADME, organism-based.
Data set [26] is described as follows: Area under curve value 24 hr after 2 mg/kg iv administration in monkeys. The class given is ADME, organism-based. Set-up: time < 24 hr, dose 2 mg/kg, route intravenous. The note with it: cercopithecidae, in vivo.
Data set [27] in a line: Bioavailability after administration of 10 mg/kg in rats. The class given is ADME, organism-based. The note with it: rat, in vivo, read-out: Bioavailabiility.
Data set [28] can be described thus: Cmax 24 hr after 10 mg/kg oral administration in rats. Also on record: dose 10 mg/kg, route oral. It counts as ADME, organism-based. The note with it: rat, in vivo.
Data set [29] in a line: Half-life 24 hr after 10 mg/kg iv administration in rats. Set-up: dose 10 mg/kg, route intravenous. The following applies: rat, in vivo. It counts as ADME, organism-based.
The test system of data set [30] is Rattus norvegicus. Briefly: Area under curve value 24 hr after 10 mg/kg iv administration in rats. The class given is ADME, organism-based. Also on record: time < 24 hr, dose 10 mg/kg, route intravenous. The note with it: in vivo.
In data set [31] the test system is Rattus norvegicus. The experiment in a line: Area under curve value 24 hr after 10 mg/kg oral administration in rats. Also on record: time < 24 hr, dose 10 mg/kg, route oral. The note with it: in vivo. The class given is ADME, organism-based.

Sequence of Muscarinic acetylcholine receptor M3 (P20309 whole entry): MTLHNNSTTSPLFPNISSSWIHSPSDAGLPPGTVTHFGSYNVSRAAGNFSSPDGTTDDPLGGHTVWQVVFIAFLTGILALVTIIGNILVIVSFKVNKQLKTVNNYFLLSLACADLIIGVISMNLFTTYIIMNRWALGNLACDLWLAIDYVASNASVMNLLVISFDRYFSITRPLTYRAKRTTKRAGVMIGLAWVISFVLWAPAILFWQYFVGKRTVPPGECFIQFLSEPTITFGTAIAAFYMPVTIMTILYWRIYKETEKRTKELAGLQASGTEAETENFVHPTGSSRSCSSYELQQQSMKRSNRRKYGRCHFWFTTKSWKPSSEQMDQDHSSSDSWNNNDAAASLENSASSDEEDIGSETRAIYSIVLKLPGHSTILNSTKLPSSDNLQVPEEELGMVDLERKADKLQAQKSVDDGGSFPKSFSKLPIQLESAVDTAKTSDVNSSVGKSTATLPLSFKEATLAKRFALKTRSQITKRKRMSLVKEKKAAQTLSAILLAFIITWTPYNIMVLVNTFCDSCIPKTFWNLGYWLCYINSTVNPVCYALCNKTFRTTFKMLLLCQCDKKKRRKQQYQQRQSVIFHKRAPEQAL
Sequence of C-C chemokine receptor type 5 (P51681 whole entry): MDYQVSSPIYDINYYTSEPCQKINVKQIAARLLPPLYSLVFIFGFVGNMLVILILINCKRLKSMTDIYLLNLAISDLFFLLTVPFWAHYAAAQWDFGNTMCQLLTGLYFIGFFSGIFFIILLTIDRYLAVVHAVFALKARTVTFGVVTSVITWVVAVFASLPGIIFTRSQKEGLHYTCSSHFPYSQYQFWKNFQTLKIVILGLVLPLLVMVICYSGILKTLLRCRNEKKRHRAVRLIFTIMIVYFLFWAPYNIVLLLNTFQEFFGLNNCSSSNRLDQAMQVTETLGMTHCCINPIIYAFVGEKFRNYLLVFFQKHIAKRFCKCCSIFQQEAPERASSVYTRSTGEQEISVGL

In the case of `CC[C@@H](c1ccc(C(F)(F)F)cc1)N1CCN(C2(C)CCN(C(=O)c3c(C)ncnc3C)CC2)C[C@@H]1C`, the 90% effect concentration (IC90) is 16 nM in data set [1]; 19 nM in data set [5]; 18 nM in data set [6]; 1000 nM in data set [7]; 21 nM in [9]. Besides, in data set [2], the AUC 0-6h came out at 7310 ng·h/mL. The Ki in data set [3] worked out at 5.2 nM; in data set [8] it was 4750 nM; in data set [10], 3900 nM; in data set [11], 9090 nM. The same molecule gave a 50% inhibitory concentration (IC50) in [4] of 0.18 nM.
Regarding `Cc1ncnc(C)c1C(=O)N1CCC(C)(N2CCN([C@@H](C)c3ccc(C(F)(F)F)cc3)[C@@H](C)C2)CC1`, the IC90 in data set [1] was 13 nM; in [5] it was 40 nM; in data set [6], 31 nM; in [7], greater than 1000 nM; in [9], 19 nM. In data set [2], this molecule came in with an AUC 0-6h of 6210 ng·h/mL. In data set [4], this molecule showed a concentration for half-maximal inhibition (IC50) of 0.39 nM. The Ki in [10] worked out at 575 nM; in data set [11], 716 nM.
For the molecule `Cc1ncnc(C)c1C(=O)N1CCC(C)(N2CCN([C@@H](CC3CC3)c3ccc(C(F)(F)F)cc3)[C@@H](C)C2)CC1`, the AUC 0-6h in data set [2] is 5900 ng·h/mL. Further, the inhibitory constant (Ki) in [3] was 1.6 nM; in data set [8], 3510 nM; in data set [10], 1890 nM. This molecule registered an IC50 in [4] of 0.8 nM.
For `CCC[C@@H](c1ccc(C(F)(F)F)cc1)N1CCN(C2(C)CCN(C(=O)c3c(C)ncnc3C)CC2)C[C@@H]1C`, the figures for the Cmax in data set [12] and in [17] were 240 ng/mL and 311 ng/mL, respectively. For the same molecule, the half-life in data set [13] was 15.5 h; in data set [18], 6.3 h. The IC90 was determined as 0.09 nM in data set [14]; 0.01 nM in data set [15]; 0.27 nM in data set [20]; 0.43 nM in data set [21]; 0.03 nM in data set [22]. This molecule gave an AUC 0-6h in data set [2] of 4600 ng·h/mL. Besides, the Ki in [3] is 1.1 nM; in data set [8] it was 4760 nM; in [10], 6070 nM; in [11], greater than 5300 nM. In addition, the IC50 in data set [4] came to 0.35 nM. The AUC 0-24h is 1760 ng·h/mL in data set [16], 4550 ng·h/mL in data set [19], 3270 ng·h/mL in data set [25] and 2670 ng·h/mL in [26]. For the same molecule, the bioavailability in data set [23] stood at 66%; in data set [24] it was 72%.
Regarding `Cc1ncnc(C)c1C(=O)N1CCC(C)(N2CCN([C@@H](Cc3ccccc3)c3ccc(C(F)(F)F)cc3)[C@@H](C)C2)CC1`, the IC90 is 0.6 nM in data set [1]; 0.19 nM in data set [5]; 0.25 nM in data set [6]; 4 nM in data set [7]; 0.04 nM in data set [9]. Further, in data set [2], the AUC 0-6h was determined as 2030 ng·h/mL. Also, the Ki in [3] was 1.4 nM; in [8] it was greater than 5700 nM; in [10], greater than 3900 nM; in data set [11] it was greater than 5300 nM. The same molecule displayed an IC50 in [4] of 0.13 nM.
Take `Cc1ncnc(C)c1C(=O)N1CCC(C)(N2CCN([C@@H](CCC(F)(F)F)c3ccc(C(F)(F)F)cc3)[C@@H](C)C2)CC1`: in [2], the AUC 0-6h is 4600 ng·h/mL. Moreover, the IC50 in data set [4] turned out to be 1.44 nM. In addition, the results for the inhibition constant Ki in [8] and in [10] were greater than 6700 nM and greater than 3700 nM, respectively.
Take `CCO/N=C(\c1ccc(Br)cc1)C1CCN(C2(C)CCN(C(=O)c3c(C)cc[n+]([O-])c3C)CC2)CC1` [ANCRIVIROC]: the IC90 in data set [1] was 43 nM; in data set [5], 19 nM; in data set [6], 10 nM; in data set [7], 400 nM; in data set [9], 25 nM.
For the molecule `COC[C@@H](c1ccc(C(F)(F)F)cc1)N1CCN(C2(C)CCN(C(=O)c3c(C)ncnc3C)CC2)C[C@@H]1C` [VICRIVIROC], the Cmax in data set [12] was determined as 670 ng/mL; in data set [28], 2300 ng/mL. The values for the bioavailability in data set [27] and in data set [23] were 100% and 89%, respectively. For the same molecule, the 90% effect concentration (IC90) in [1] amounted to 1.8 nM; in [5], 3.3 nM; in data set [6] it was 4.9 nM; in data set [7], 10 nM; in data set [9], 2.8 nM. In data set [2], this molecule came in with an AUC 0-6h of 6900 ng·h/mL. The same molecule had a concentration for half-maximal inhibition (IC50) in data set [4] of 0.46 nM. Further, the AUC 0-24h in [16] came to 1990 ng·h/mL; in data set [30] it was 21000 ng·h/mL; in data set [26], 2240 ng·h/mL; in data set [31], 21000 ng·h/mL. Besides, the half-life in [18] was 3.5 h; in data set [29], 8 h. The Ki in data set [8] and in data set [10] was greater than 10000 nM throughout.

The IC90 is the concentration at which the effect reaches the 90% level. The term Ki denotes the dissociation constant of the complex between target and ligand, obtained from inhibition or displacement. One may read the IC50 as the concentration that gives 50% inhibition. By Cmax is commonly meant the peak of the concentration-time curve. One may read the half-life as how long it takes for the measured level to halve.
